Patent publication US8003801B2 (The Scripps Research Institute, priority 2005, dated 2011)
“And” between values parts separate entries of the source, which are not always exact repeats. Equal values may be shown once. “Also recorded” adds a separate entry of the source. Read-outs that look alike come from different tables or passages of the source.

Key:
[1] = system: KB-31 human epidermoid cancer cell line; experiment: 72 hour growth-inhibition (cytotoxicity) assay, KB-31 cells; assay type: cell-based
[2] = system: 1A9/PTX10, Taxol-resistant 1A9 cell line (β270 Phe→Val); experiment: 72 hour growth-inhibition (cytotoxicity) assay, 1A9/PTX10 cells; assay type: cell-based, human; conditions: for RAEpoB (relative activity), 1A9/PTX10: ratio of IC50 of EpoB to IC50 of the tested compound in the concurrent assay; for RRp (relative resistance), 1A9/PTX10: IC50 of 1A9/PTX10 divided by IC50 of the parental cell line 1A9
[3] = system: 1A9/A8, EpoA-resistant 1A9 cell line (β274 Thr→Ile); experiment: 72 hour growth-inhibition (cytotoxicity) assay, 1A9/A8 cells; assay type: cell-based, human; conditions: for RAEpoB (relative activity), 1A9/A8: ratio of IC50 of EpoB to IC50 of the tested compound in the concurrent assay; for RRp (relative resistance), 1A9/A8: IC50 of 1A9/A8 divided by IC50 of the parental cell line
[4] = system: KB-8511, Taxol-resistant (Pgp-overexpression) KB cell line; experiment: 72 hour growth-inhibition (cytotoxicity) assay, KB-8511 cells
Experimental: In addition, further cytotoxicity studies were carried out using a pair of drug-sensitive parental human epidermoid carcinoma cells (KB-31) and its Taxol™-resistant Pgp-overexpressing subline (KB-5811).

[5] = system: 1A9 human ovarian cancer cell line; experiment: 72 hour growth-inhibition (cytotoxicity) assay, 1A9 cells; assay type: cell-based; conditions: for RAEpoB (relative activity), 1A9: ratio of IC50 of EpoB to IC50 of the tested compound in the concurrent assay
[6] = system: A2780/AD10, drug-resistant clone of human ovarian carcinoma A2780 overexpressing P-glycoprotein; experiment: 72 hour growth-inhibition (cytotoxicity) assay, A2780/AD10 cells; assay type: cell-based; conditions: for IC50: 72 hour growth inhibition, sulforhodamine-B staining, mean of 3-5 experiments ± SEM; for RRp (relative resistance), A2780/AD10: IC50 of A2780/AD10 divided by IC50 of the parental cell line
[7] = system: drug-sensitive and drug-resistant human cancer cell lines; experiment: Cytotoxicity assays across the panel of cell lines (summary in words); assay type: cell-based; conditions: summary of Tables 1A-1C
[8] = Homo sapiens, KB 3-1, read-out: IC50, KB-31 (Table 2)
[9] = Homo sapiens, 1A9/ptx-10, Table 2, tested epothilone, unit from Table 1A note a, read-out: IC50, 1A9/PTX10 (Table 2)
[10] = Homo sapiens, 1A9, Table 2, tested epothilone, unit from Table 1A note a, read-out: IC50, 1A9/A8 (Table 2)
[11] = read-out: IC50, KB-5811 (Table 2), Table 2, tested epothilone, cell line KB-5811, unit from Table 1A note a
[12] = Homo sapiens, 1A9, Table 2, tested epothilone, unit from Table 1A note a, read-out: IC50, 1A9 (Table 2)
[13] = Homo sapiens, KB 3-1, 72 h, read-out: KB-31 IC50
[14] = Homo sapiens, 1A9/ptx-10, 72 hour growth inhibition, sulforhodamine-B staining, mean of 3-5 experiments ± SEM, read-out: 1A9/PTX10 IC50
[15] = Homo sapiens, 1A9, 72 hour growth inhibition, sulforhodamine-B staining, mean of 3-5 experiments ± SEM, read-out: 1A9/A8 IC50
[16] = read-out: KB-8511 IC50, 72 hour growth inhibition, methylene blue staining, mean of 3-5 experiments ± SEM
[17] = Homo sapiens, 1A9, 72 hour growth inhibition, sulforhodamine-B staining, mean of 3-5 independent experiments ± standard error of the mean, read-out: 1A9 IC50
[18] = 72 hour growth inhibition, sulforhodamine-B staining, mean of 3-5 experiments ± SEM, read-out: 1A9/PTX10 IC50
[19] = 72 hour growth inhibition, sulforhodamine-B staining, mean of 3-5 experiments ± SEM, read-out: 1A9/A8 IC50
[20] = 72 hour growth inhibition, sulforhodamine-B staining, mean of 3-5 independent experiments ± standard error of the mean, read-out: 1A9 IC50

| SMILES | IC50 ([6]; Homo sapiens, A2780) | RRp (relative resistance), A2780/AD10 [6] | IC50 [1, 13] | IC50 [2, 14] | IC50 [3, 15] | IC50 [4, 16] | IC50 [5, 17] | RRp (relative resistance), 1A9/PTX10 [2] | RRp (relative resistance), 1A9/A8 [3] | also measured |
| --- | --- | --- | --- | --- | --- | --- | --- | --- | --- | --- |
| CSc1nc(/C=C(\C)[C@@H]2C[C@@H]3C[C@]3(C)CCC[C@H](C)[C@H](O)[C@@H](C)C(=O)C(C)(C)[C@@H](O)CC(=O)O2)cs1 [Compound 4, reference compound] |  |  |  |  |  |  |  |  |  | IC50 [1, 8]: 0.2 nM; IC50 [2, 9]: 0.7 nM; RAEpoB (relative activity), 1A9/PTX10 [2]: 4.4; IC50 [3, 10]: 2.4 nM; RAEpoB (relative activity), 1A9/A8 [3]: 2.7; IC50 [4, 11]: 0.12 nM; IC50 [5, 12]: 0.1 nM; RAEpoB (relative activity), 1A9 [5]: 6.0 |
| C/C(=C\c1c(I)ncn1C)[C@@H]1C[C@@H]2O[C@]2(C)CCC[C@H](C)[C@H](O)[C@@H](C)C(=O)C(C)(C)[C@@H](O)CC(=O)O1 [Compound 10] | 1070 nM | 5.9 | > 1000 nM | > 750 nM | > 750 nM | > 1000 nM | > 750 nM |  |  |  |
| CSc1nc(/C=C(\C)[C@@H]2C[C@@H]3O[C@]3(C)CCC[C@H](C)[C@H](O)[C@@H](C)C(=O)C(C)(C)[C@@H](O)CC(=O)O2)nc2c1ncn2C [Compound 19] | 67 ± 9.8 nM | 16.8 | 0.36 ± 0.17 nM | 2 ± 1.5 nM | 2.8 ± 2.2 nM | 6.21 ± 0.86 nM | 1 ± 0.8 nM | 2.0 | 2.8 |  |
| C/C(=C\c1ncnn1C)[C@@H]1C[C@@H]2O[C@]2(C)CCC[C@H](C)[C@H](O)[C@@H](C)C(=O)C(C)(C)[C@@H](O)CC(=O)O1 [Compound 9] | > 750 nM |  | 382 ± 49.4 nM | > 750 nM | 627 nM | > 1000 nM | 540 nM |  | 1.2 | cytotoxicity across the tested cell lines, in words [7]: significantly lower activities |
| C/C(=C\c1cn(C)cn1)[C@@H]1C[C@@H]2O[C@]2(C)CCC[C@H](C)[C@H](O)[C@@H](C)C(=O)C(C)(C)[C@@H](O)CC(=O)O1 [Compound 11] | > 750 nM |  | 277 ± 122 nM | > 750 nM | 150 nM | > 1000 nM | 181 ± 81.6 nM |  | 0.8 |  |
| C/C(=C\c1nc2ccccc2s1)[C@@H]1C[C@@H]2O[C@]2(C)CCC[C@H](C)[C@H](O)[C@@H](C)C(=O)C(C)(C)[C@@H](O)CC(=O)O1 [Compound 7] | 707 nM | 7.4 | 0.21 ± 0.07 nM | 2.6 ± 2.5 nM | 0.7 ± 0.4 nM | 0.08 ± 0.04 nM | 0.19 ± 0.1 nM | 13.7 | 3.7 | IC50 [1, 8]: 0.21 nM; IC50 [2, 9]: 2.6 nM; RAEpoB (relative activity), 1A9/PTX10 [2]: 3.0; cytotoxicity across the tested cell lines, in words [7]: excellent cytotoxicity across the range of cell lines, being more potent than EpoB; IC50 [3, 10]: 0.7 nM; RAEpoB (relative activity), 1A9/A8 [3]: 14.3; IC50 [4, 11]: 0.08 nM; IC50 [5, 12]: 0.19 nM; RAEpoB (relative activity), 1A9 [5]: 5.2 |
| C/C(=C\C#N)[C@@H]1C[C@@H]2O[C@]2(C)CCC[C@H](C)[C@H](O)[C@@H](C)C(=O)C(C)(C)[C@@H](O)CC(=O)O1 [Compound 21] | > 150 nM |  | 346 ± 10.5 nM | > 750 nM | > 750 nM | > 1000 nM | > 750 nM |  |  | cytotoxicity across the tested cell lines, in words [7]: not found active; also recorded: devoid of any significant cytotoxicity against any of the cell lines tested |
| CSc1nc(/C=C(\C)[C@@H]2C[C@@H]3O[C@]3(C)CCC[C@H](C)[C@H](O)[C@@H](C)C(=O)C(C)(C)[C@@H](O)CC(=O)O2)c(SC)n1C [Compound 13] | 1.3 ± 0.3 nM | 2.6 | 240 ± 34 nM | > 750 nM | 574 nM | 247 ± 47.9 nM | > 750 nM |  |  |  |
| C/C(=C\c1nnn(COCc2ccccc2)n1)[C@@H]1C[C@@H]2O[C@]2(C)CCC[C@H](C)[C@H](O)[C@@H](C)C(=O)C(C)(C)[C@@H](O)CC(=O)O1 [Compound 20] | > 750 nM |  | 0.57 ± 0.08 nM | 49 ± 7 nM | 16.8 ± 9.2 nM | 4.44 ± 0.69 nM | 4 ± 0.3 nM | 12.3 | 4.2 |  |
| C/C(=C\c1csc(C)n1)[C@@H]1C[C@@H]2O[C@]2(C)CCC[C@H](C)[C@H](O)[C@@H](C)C(=O)C(C)(C)[C@@H](O)CC(=O)O1 [EpoB, reference compound] |  | 15.7 |  |  |  | 0.39 ± 0.02 nM |  | 7.9 | 10.1 | IC50 [6]: 56.5 ± 23.3 nM; IC50 ([1]; 72 hour growth inhibition, methylene blue staining, mean of 3-5 experiments ± SEM, read-out: KB-31 IC50): 0.42 ± 0.03 nM; IC50 ([1]; read-out: EpoB (IC50 in the concurrent assay), KB-31, Table 2, EpoB determined concurrently with the epothilone): 0.19 nM; IC50 [2, 18]: 7.8 ± 4.6 nM; IC50 ([2]; read-out: EpoB (IC50 in the concurrent assay), 1A9/PTX10, Table 2, EpoB determined concurrently with the epothilone): 3.7 nM and 3.1 nM; IC50 [3, 19]: 10 ± 1.4 nM; IC50 ([3]; read-out: EpoB (IC50 in the concurrent assay), 1A9/A8, Table 2, EpoB determined concurrently with the epothilone): 10 nM and 6.5 nM; IC50 [5, 20]: 0.99 ± 0.8 nM; IC50 ([5]; read-out: EpoB (IC50 in the concurrent assay), 1A9, Table 2, EpoB determined concurrently with the epothilone, unit from Table 1A note a): 0.3 nM and 0.6 nM |
| C/C(=C\c1nc(Br)c(Br)n1C)[C@@H]1C[C@@H]2O[C@]2(C)CCC[C@H](C)[C@H](O)[C@@H](C)C(=O)C(C)(C)[C@@H](O)CC(=O)O1 [Compound 12] | 574 nM |  | > 1000 nM | > 750 nM | > 750 nM | > 1000 nM | > 750 nM |  |  |  |
| C/C(=C\c1nc(Cl)c2ncn(C)c2n1)[C@@H]1C[C@@H]2O[C@]2(C)CCC[C@H](C)[C@H](O)[C@@H](C)C(=O)C(C)(C)[C@@H](O)CC(=O)O1 [Compound 17] | 46.3 ± 33.2 nM | 12.5 | 1.62 ± 0.22 nM | 13.6 ± 7.3 nM | 4 ± 2.5 nM | 20.2 ± 2.14 nM | 3.7 ± 1.5 nM | 3.7 | 1.1 |  |
| C/C(=C\c1csc(C)n1)[C@@H]1C[C@@H]2O[C@@H]2CCC[C@H](C)[C@H](O)[C@@H](C)C(=O)C(C)(C)[C@@H](O)CC(=O)O1 [EpoA, reference compound] |  | 25.7 |  |  |  |  |  | 2.1 | 17.1 | IC50 [6]: 25.4 ± 8.6 nM; IC50 [2, 18]: 5.1 ± 2.6 nM; IC50 [3, 19]: 41 ± 7.3 nM; IC50 [5, 20]: 2.4 ± 2.6 nM |
| COc1nc(/C=C(\C)[C@@H]2C[C@@H]3O[C@]3(C)CCC[C@H](C)[C@H](O)[C@@H](C)C(=O)C(C)(C)[C@@H](O)CC(=O)O2)nc2c1ncn2C [Compound 18] | 47.3 ± 36.5 nM | 47.3 | 0.15 ± 0.09 nM | 19.8 ± 10.6 nM | 2.2 ± 1.6 nM | 7.45 ± 0.81 nM | 3.7 ± 1.8 nM | 5.4 | 0.6 |  |
| CC(=O)O[C@@]12CO[C@@H]1C[C@H](O)[C@@]1(C)C(=O)[C@H](O)C3=C(C)[C@@H](OC(=O)[C@H](O)[C@@H](NC(=O)OC(C)(C)C)c4ccccc4)C[C@@](O)([C@@H](OC(=O)c4ccccc4)[C@H]21)C3(C)C [Taxotere ™, reference compound] | 29.4 ± 5.4 nM | 12.3 |  | 32 ± 6.8 nM | 0.8 ± 0.2 nM |  | 1.5 ± 1.1 nM | 21.3 | 0.5 |  |
| CC(=O)O[C@H]1C(=O)[C@@]2(C)[C@H]([C@H](OC(=O)c3ccccc3)[C@]3(O)C[C@H](OC(=O)[C@H](O)[C@@H](NC(=O)c4ccccc4)c4ccccc4)C(C)=C1C3(C)C)[C@]1(OC(C)=O)CO[C@@H]1C[C@@H]2O [Taxol ™, reference compound] | > 150 nM |  |  |  |  | 1130 ± 74 nM |  |  |  | IC50 ([1]; Homo sapiens, KB 3-1, 72 hour growth inhibition, methylene blue staining, mean of 3-5 experiments ± SEM, read-out: KB-31 IC50): 6.08 ± 1.19 nM |
